Reference: ChEMBL document CHEMBL1201862, “PubChem BioAssay data set” (2004)
Activity calls are given as the source filed them. For most assays here, no stated cut-off is given here; in the data, actives have a measured EC50 and inactives only a lower limit.

Legend:
[1] = molecular target: G-protein coupled receptor 35 (Homo sapiens, UniProt Q9HC97); assay: inhibition of zaprinast-stimulated GPR35 beta-arrestin translocation – imaging, U2OS, beta-arrestin-GFP, zaprinast agonist, primary screen (AID 2058); assay type: functional;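 further: antagonist potency meaning inhibition of agonist-induced arrestin redistribution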
G-protein coupled receptor 35, sequence (Q9HC97 whole entry): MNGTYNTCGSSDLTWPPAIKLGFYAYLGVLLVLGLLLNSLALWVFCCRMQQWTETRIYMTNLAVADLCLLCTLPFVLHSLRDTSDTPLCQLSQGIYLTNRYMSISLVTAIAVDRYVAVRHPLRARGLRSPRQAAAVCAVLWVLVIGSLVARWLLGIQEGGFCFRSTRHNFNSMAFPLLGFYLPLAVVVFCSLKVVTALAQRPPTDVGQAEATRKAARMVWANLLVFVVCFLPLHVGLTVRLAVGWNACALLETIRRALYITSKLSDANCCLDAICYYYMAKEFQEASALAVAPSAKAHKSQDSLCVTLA

[2] = tested on: J774.A1; assay: Confirmation of image-based Screening Assay for Inhibitors of Phagocytosis. [Related pubchem assays (depositor defined):AID1029, AID1643]; assay type: functional, cell-based; conditions: Mus musculus
[3] = DRD fibroblast viability loss – cell-based, non-viral oncogenic, luminescence, dose response (AID 1934); assay type: functional; conditions: Homo sapiens
[4] = tested on: BJ; assay: BJ-TERT-LT-ST fibroblast viability loss – cell-based, RAS-independent, luminescence, dose response (AID 1935); assay type: functional; conditions: Homo sapiens;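 further: BJ fibroblasts immortalized with TERT plus LT and ST oncogenes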
[5] = tested on: BJ; assay: cells; assay type: functional, cell-based; conditions: Homo sapiens
[6] = tested on: BJ; assay: BJ-TERT fibroblast viability loss – cell-based, RAS-independent, luminescence, dose response (AID 1933); assay type: functional; conditions: Homo sapiens
[7] = molecular target: G-protein coupled receptor 55 (Homo sapiens, UniProt Q9Y2T6); assay: inhibition of LPI-stimulated GPR55 beta-arrestin translocation – imaging, U2OS, beta-arrestin-GFP, LPI agonist, primary screen (AID 2013); assay type: functional;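 further: antagonist potency measured as reduced agonist-driven arrestin aggregation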
G-protein coupled receptor 55, sequence (Q9Y2T6 whole entry): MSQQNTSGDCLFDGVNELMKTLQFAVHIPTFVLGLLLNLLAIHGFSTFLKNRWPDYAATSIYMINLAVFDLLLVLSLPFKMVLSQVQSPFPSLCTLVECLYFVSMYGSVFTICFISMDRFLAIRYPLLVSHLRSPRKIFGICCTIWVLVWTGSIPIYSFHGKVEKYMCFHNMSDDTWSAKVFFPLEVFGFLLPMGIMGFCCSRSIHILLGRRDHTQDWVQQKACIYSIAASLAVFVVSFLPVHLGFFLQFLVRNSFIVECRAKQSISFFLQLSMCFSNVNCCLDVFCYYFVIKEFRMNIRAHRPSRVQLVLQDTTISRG

[8] = molecular target: T1, Intestinal-type alkaline phosphatase (Homo sapiens, UniProt P09923); assay: Dose Response confirmation of uHTS hits from a small molecule inhibitors of human intestinal alkaline phosphatase via a luminescent assay. [Related pubchem assays (depositor defined):AID2544, AID2574]; assay type: functional
T1 sequence (P09923 whole entry): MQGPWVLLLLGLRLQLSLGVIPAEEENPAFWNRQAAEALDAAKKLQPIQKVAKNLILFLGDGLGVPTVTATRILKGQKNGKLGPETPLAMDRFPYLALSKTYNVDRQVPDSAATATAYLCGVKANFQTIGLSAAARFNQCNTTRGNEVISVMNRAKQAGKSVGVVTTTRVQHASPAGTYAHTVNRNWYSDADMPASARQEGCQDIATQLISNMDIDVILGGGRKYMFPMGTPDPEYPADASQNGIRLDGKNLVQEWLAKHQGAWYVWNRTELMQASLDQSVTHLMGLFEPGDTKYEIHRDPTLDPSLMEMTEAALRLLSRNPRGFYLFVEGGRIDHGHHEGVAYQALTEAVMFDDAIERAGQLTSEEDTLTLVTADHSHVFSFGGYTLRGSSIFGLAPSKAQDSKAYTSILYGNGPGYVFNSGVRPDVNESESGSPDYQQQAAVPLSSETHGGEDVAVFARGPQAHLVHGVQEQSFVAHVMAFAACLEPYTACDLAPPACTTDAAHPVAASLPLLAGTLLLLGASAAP

[9] = molecular target: T1, Intestinal-type alkaline phosphatase; assay: human intestinal alkaline phosphatase activators, dose response, biochemical, luminescence, uHTS hits (AID 463120); assay type: functional

## Cc1nnc(NC(=O)c2sc3nc(-c4cccs4)cc(C(F)(F)F)c3c2N)s1
[1]
  IC50: 0.61 µM (active)

## CCN1CCN(c2ncc3c(n2)CC(c2cc(OC)c(OC)c(OC)c2)CC3=O)CC1 (centres undefined)
[2]
  IC50: 0.419 µM (active)
[3]
  EC50: 2.34 µM (active)
[4]
  EC50: 21.8 µM (active)
[5]
  EC50: 124 µM (active)
[6]
  EC50: 5.01 µM (active)

## CCOC(=O)c1c(NC(=O)C2=C(C)N=C(S)NC2c2ccc(C)cc2)sc(C)c1C (centres undefined)
[7]
  IC50: < 0.5 µM (active)

## COc1ccc(CC2CC(=O)N(c3ccc(C)cc3)C2=O)cc1 (centres undefined)
[8]
  IC50: > 100 µM (inactive)
[9]
  EC50: > 100 µM (inactive)
